{
  "source": "paper PMC10518255",
  "about": "“A first-in-class pan-lysyl oxidase inhibitor impairs stromal remodeling and enhances gemcitabine response and survival in pancreatic cancer” (Nature Cancer, 2023)",
  "key": {"PDGFR-β": {"test_system": "PDGFR-β", "assay": "Immunohistochemistry of end-point KPC tumors: panCAF marker", "format": "in vivo, mouse", "conditions": "for Percent coverage of PDGFR-ß positive staining: Extended Data 6C, KPC tumours at endpoint, individual FOV", "procedure": "(§1) All tissues or matrices, including patient TMAs, were fixed in 10% buffered formalin and embedded in paraffin. The 4-μm sections of samples were deparaffinized with xylene and rehydrated in graded ethanol washes. For immunohistochemistry, Bond Dewax Solution (AR9222) was used. Antigen retrieval was performed using Bond RX H2(30) protocol: HIER 30 min ER1 (citrate pH 6) OR ER2 (EDTA pH 9) at 100 °C. Slides were quenched in BOND Polymer Refine Detection (Leica Biosystems DS9800). […] Slides were digitized on an Aperio slide scanner and representative areas per tumor acquired and analyzed by researchers blinded to the conditions of the experiment.\n(§2) Extended Data Fig. 6 PXS-5505 in combination with gemcitabine in a KPC model. a. Quantification of proliferating cells (Ki67 positive nuclear staining) in KPC tumors at end point, treated as indicated. 5 fields of view (500 μm × 500 μm) per mouse and 10 mice per cohort were scored. […] Quantification of percent coverage of αSMA positive staining in KPC tumors at end point, treated as indicated. 3 fields of view (1000 μm × 1000 μm) per mouse and 10 mice per cohort were scored. […] Quantification of percent coverage of PDGFR-ß positive staining in KPC tumors at end point, treated as indicated. 3 fields of view (1000 μm × 1000 μm) per mouse and 10 mice per cohort were scored. […] Quantification of pMLC2 positive staining in stromal regions of KPC tumors at end point, treated as indicated. 3 fields of view (500 μm × 500 μm) per mouse and 10 mice per cohort were scored. […] Quantification of tumor vasculature (CD31 positive staining) in KPC tumors at end point, treated as indicated. 3 fields of view (1000 μm × 1000 μm) per mouse and 10 mice per cohort were scored. […] Quantification of STAT3 activation (pSTAT3 positive nuclear staining) in KPC tumors at end point, treated as indicated. 3 fields of view (1000 μm × 1000 μm) per mouse and 5 mice per cohort were scored. […] Scale bars = 100 μm. g Quantification of macrophage infiltration (F4/80 positive staining) in KPC tumors at end point, treated as indicated. […]"}, "CD31": {"test_system": "CD31", "assay": "Immunohistochemistry of end-point KPC tumors: tumor vasculature", "format": "in vivo, mouse", "conditions": "for Quantification of tumour vasculature (CD31 positive staining): Extended Data 6E, KPC tumours at endpoint, individual FOV", "procedure": "as §1, §2"}},
  "note": "Values joined by “and” are separate entries in the source; they are usually repeats but may differ in a detail not shown here. Identical values can stand only once.",
  "data": [
    {"molecule": "Cl.Cl.NC/C=C(\\F)CS(=O)(=O)c1cccc2cccnc12.O", "note": "[PXS-5505, (Z)-3-fluoro-4-(quinolin-8-ylsulfonyl)but-2-en-1-amine dihydrochloride monohydrate]", "values": [
      {"measurement": "Percent coverage of PDGFR-ß positive staining", "setting": "PDGFR-β", "value": "6.765% and 8.3993% and 2.8629% and 12.2376% and 9.6982% and 4.3212% and 4.8524% and 9.496% and 7.1445% and 8.9357% and 7.1025% and 17.1234% and 12.5648% and 3.0699% and 20.4926% and 2.5465% and 8.2725% and 3.1151% and 4.1221% and 5.7763% and 4.8975% and 4.1951% and 11.8569% and 14.757% and 1.2435% and 4.7314% and 2.3407% and 3.9912% and 1.8413% and 6.5811%"},
      {"measurement": "Quantification of tumour vasculature (CD31 positive staining)", "setting": "CD31", "value": "1.4669 and 1.052 and 0.7167 and 1.5204 and 1.7208 and 1.2357 and 2.5692 and 2.5978 and 2.6637 and 1.5089 and 2.7227 and 2.2335 and 3.0895 and 2.1825 and 1.7906 and 0.381 and 0.3483 and 0.8882 and 1.0908 and 1.998 and 0.3729 and 1.0662 and 0.7486 and 0.544 and 1.3597 and 1.732 and 1.5892 and 0.9619 and 1.2706 and 1.8307"}
    ]},
    {"molecule": "Nc1ccn([C@@H]2O[C@H](CO)[C@@H](O)C2(F)F)c(=O)n1", "note": "[Gem, gemcitabine]", "values": [
      {"measurement": "Percent coverage of PDGFR-ß positive staining", "setting": "PDGFR-β", "value": "7.4938% and 2.1875% and 12.1122% and 4.282% and 6.095% and 3.1691% and 15.1145% and 8.8619% and 8.0756% and 17.8714% and 24.3073% and 20.1172% and 13.2929% and 10.304% and 12.3137% and 10.967% and 18.634% and 4.9424% and 8.9111% and 7.7908% and 2.017% and 14.5457% and 8.9344% and 10.6658% and 5.631% and 1.6247% and 8.4484% and 0.5673% and 1.2057% and 0.8465%"},
      {"measurement": "PDGFR-β positivity", "setting": "PDGFR-β; KPC tumors at end point", "value": "small decreases in positivity"},
      {"measurement": "Quantification of tumour vasculature (CD31 positive staining)", "setting": "CD31", "value": "0.7299 and 0.7671 and 1.094 and 0.1238 and 0.9491 and 1.4885 and 2.0289 and 0.3988 and 1.306 and 1.1528 and 0.8514 and 0.5685 and 1.3159 and 1.5073 and 0.7452 and 2.699 and 3.9605 and 1.2028 and 1.6599 and 0.7292 and 1.2066 and 0.7182 and 1.9396 and 0.8792 and 0.4356 and 0.528 and 0.6666 and 0.9682 and 1.0035 and 1.0817"},
      {"measurement": "CD31 positivity", "setting": "CD31; KPC tumors at end point", "value": "moderately reduce CD31 positivity"}
    ]}
  ]
}
